Source: US8754242B2, “Herbicides” (Syngenta Crop Protection LLC, priority 2007, dated 2014)

Columns and labels:
Format in all cases: in vivo
[1] = system: winter barley 'Antoniya'; assay: Test Example 2 post-emergence crop injury, alone and with cloquintocet-mexyl; settings: Adigor 0.5%, 2-3 leaf seedlings, assessed 14-21 days after application
Text: (§1) Test compounds were applied post-emergence at 60 g ai/ha, alone and in combination with cloquintocet-mexyl at 60 g ai/ha; the adjuvant Adigor (0.5%) was included for every treatment. The application volume was […]. Target plants were 2-3 leaf seedlings of winter wheat ‘Hereward’ and winter barley ‘Antoniya’ grown in a greenhouse under ambient conditions. Assessments were made at 14-21 days after application.

[2] = system: winter wheat 'Hereward'; assay: as above; settings: Adigor 0.5%, 2-3 leaf seedlings, assessed 14-21 days after application
Text: as §1

[3] = system: Setaria faberi (SETFA); assay: Test Example 1 pre-emergence herbicidal activity; settings: rate 250 g/ha, evaluated 20 days later; for pest or weed control at 250 g/ha: Setaria faberi, 480 h, read-out: Pre-emergence activity SETFA (100=total damage to plant; 0=no damage to plant)
Outline: (§2)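 Once sown in standard soil, pots received an aqueous spray of the formulated active ingredient, either after one day or after ten days of controlled glasshouse growth. Plants then grew under optimum greenhouse conditions. Herbicidal effect was assessed visually 15 (post-emergence) or 20 (pre-emergence) days later, 100 meaning total plant damage.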

[4] = system: Echinochloa crus-galli (ECHCG); assay: Test Example 1 pre-emergence herbicidal activity; settings: rate 250 g/ha, evaluated 20 days later; for pest or weed control at 250 g/ha: Echinochloa crus-galli, 480 h, read-out: Pre-emergence activity ECHCG (100=total damage to plant; 0=no damage to plant)
Outline: as §2

[5] = system: Alopecurus myosuroides (ALOMY); assay: Test Example 1 pre-emergence herbicidal activity; settings: rate 250 g/ha, evaluated 20 days later; for pest or weed control at 250 g/ha: Alopecurus myosuroides, 480 h, read-out: Pre-emergence activity ALOMY (100=total damage to plant; 0=no damage to plant)
Outline: as §2

[6] = system: Digitaria sanguinalis (DIGSA); assay: Test Example 1 pre-emergence herbicidal activity; settings: rate 250 g/ha, evaluated 20 days later; for pest or weed control at 250 g/ha: Digitaria sanguinalis, 480 h, read-out: Pre-emergence activity DIGSA (100=total damage to plant; 0=no damage to plant)
Outline: as §2

[7] = system: Lolium perenne (LOLPE); assay: Test Example 1 pre-emergence herbicidal activity; settings: rate 250 g/ha, evaluated 20 days later; for pest or weed control at 250 g/ha: Lolium perenne, 480 h, read-out: Pre-emergence activity LOLPE (100=total damage to plant; 0=no damage to plant)
Outline: as §2

[8] = system: Avena fatua (AVEFA); assay: Test Example 1 pre-emergence herbicidal activity; settings: rate 250 g/ha, evaluated 20 days later; for pest or weed control at 250 g/ha: Avena fatua, 480 h, read-out: Pre-emergence activity AVEFA (100=total damage to plant; 0=no damage to plant)
Outline: as §2

[9] = system: Setaria faberi (SETFA); assay: Test Example 1 post-emergence herbicidal activity; settings: rate 125 g/ha, evaluated 15 days later; for pest or weed control at 125 g/ha: 360 h, read-out: Post-emergence activity SETFA (100=total damage to plant; 0=no damage to plant)
Outline: as §2

[10] = system: Echinochloa crus-galli (ECHCG); assay: Test Example 1 post-emergence herbicidal activity; settings: rate 125 g/ha, evaluated 15 days later; for pest or weed control at 125 g/ha: 360 h, read-out: Post-emergence activity ECHCG (100=total damage to plant; 0=no damage to plant)
Outline: as §2

[11] = system: Alopecurus myosuroides (ALOMY); assay: Test Example 1 post-emergence herbicidal activity; settings: rate 125 g/ha, evaluated 15 days later; for pest or weed control at 125 g/ha: 360 h, read-out: Post-emergence activity ALOMY (100=total damage to plant; 0=no damage to plant)
Outline: as §2

[12] = system: Digitaria sanguinalis (DIGSA); assay: Test Example 1 post-emergence herbicidal activity; settings: rate 125 g/ha, evaluated 15 days later; for pest or weed control at 125 g/ha: 360 h, read-out: Post-emergence activity DIGSA (100=total damage to plant; 0=no damage to plant)
Outline: as §2

[13] = system: Lolium perenne (LOLPE); assay: Test Example 1 post-emergence herbicidal activity; settings: rate 125 g/ha, evaluated 15 days later; for pest or weed control at 125 g/ha: 360 h, read-out: Post-emergence activity LOLPE (100=total damage to plant; 0=no damage to plant)
Outline: as §2

[14] = system: Avena fatua (AVEFA); assay: Test Example 1 post-emergence herbicidal activity; settings: rate 125 g/ha, evaluated 15 days later; for pest or weed control at 125 g/ha: 360 h, read-out: Post-emergence activity AVEFA (100=total damage to plant; 0=no damage to plant)
Outline: as §2

[15] = system: wheat; assay: Test Example 3 crop injury of T1 alone and with safeners; settings: safener (if any) at 1:1, 2-3 leaf stage, assessed 14-21 days after application
Text: (§3) The test compound T1 was applied at 100 and 200 g ai/ha, alone and in combination with a range of safeners as 1:1 mixtures (for example at 100 g+100 g; 200 g+200 g) to the test plants—wheat and maize—at the 2-3 leaf stage. A 4-way safener mixture (cloquintocet-mexyl, benoxacor, fluxofenim and compound A*) was also applied with the test compound so that each safener was used a 1:1 ratio (for example at 100+100+100+100+100 g ai/ha). Assessments were made at 14-21 days after application.

[16] = system: maize; assay: as above; settings: safener (if any) at 1:1, 2-3 leaf stage, assessed 14-21 days after application
Text: as §3

[17] = compound 60 g/ha in combination with cloquintocet-mexyl 60 g/ha
[18] = compound 60 g/ha, cloquintocet-mexyl 0 g/ha

Compound | pest or weed control at 250 g/ha [3] [%] | pest or weed control at 250 g/ha [4] [%] | pest or weed control at 250 g/ha [5] [%] | pest or weed control at 250 g/ha [6] [%] | pest or weed control at 250 g/ha [7] [%] | pest or weed control at 250 g/ha [8] [%] | pest or weed control at 125 g/ha [9] [%] | pest or weed control at 125 g/ha [10] [%] | pest or weed control at 125 g/ha [11] [%] | pest or weed control at 125 g/ha [12] [%] | pest or weed control at 125 g/ha [13] [%] | pest or weed control at 125 g/ha [14] [%] | other results
CCc1cc(C)cc(CC)c1C1=C(O)[C@H]2[C@@H](C1=O)[C@@H]1CC[C@H]2O1 [Example T1] |  |  |  |  |  |  |  |  |  |  |  |  | Crop Injury (%) Barley [1, 17]: 73%; Crop Injury (%) Barley [1, 18]: 99%; Crop Injury (%) Wheat [2, 17]: 18%; Crop Injury (%) Wheat [2, 18]: 85%; Pre-emergence activity SETFA (100=total damage to plant; 0=no damage to plant) [3]: 100; Pre-emergence activity ECHCG (100=total damage to plant; 0=no damage to plant) [4]: 100; Pre-emergence activity ALOMY (100=total damage to plant; 0=no damage to plant) [5]: 100; Pre-emergence activity DIGSA (100=total damage to plant; 0=no damage to plant) [6]: 100; Pre-emergence activity LOLPE (100=total damage to plant; 0=no damage to plant) [7]: 100; Pre-emergence activity AVEFA (100=total damage to plant; 0=no damage to plant) [8]: 100; Post-emergence activity SETFA (100=total damage to plant; 0=no damage to plant) [9]: 100; Post-emergence activity ECHCG (100=total damage to plant; 0=no damage to plant) [10]: 100; Post-emergence activity ALOMY (100=total damage to plant; 0=no damage to plant) [11]: 90; Post-emergence activity DIGSA (100=total damage to plant; 0=no damage to plant) [12]: 100; Post-emergence activity LOLPE (100=total damage to plant; 0=no damage to plant) [13]: 80; Post-emergence activity AVEFA (100=total damage to plant; 0=no damage to plant) [14]: 90; Wheat Injury (%) 100 g/ha ([15]; T1 at 100 g ai/ha): 83%; Wheat Injury (%) 200 g/ha ([15]; T1 at 200 g ai/ha): 92%; Maize Injury (%) 100 g/ha ([16]; T1 at 100 g ai/ha): 90%; Maize Injury (%) 200 g/ha ([16]; T1 at 200 g ai/ha): 100%
Cc1cc(C)c(C2=C(O)[C@H]3[C@@H](C2=O)[C@@H]2CC[C@H]3O2)c(C)c1 [Example T3] | 70 | 100 | 90 | 80 | 100 | 80 | 90 | 100 | 60 | 100 | 60 | 30 | Crop Injury (%) Barley [1, 17]: 5%; Crop Injury (%) Barley [1, 18]: 5%; Crop Injury (%) Wheat [2, 17]: 0%; Crop Injury (%) Wheat [2, 18]: 28%
CCc1cc(C)cc(CC)c1C1=C(O)[C@@H]2[C@@H]3O[C@@H](C[C@H]3c3ccc(C)cc3)[C@@H]2C1=O (racemic) [Example T180] | 40 | 60 | 30 | 80 | 70 | 20 | 100 | 100 | 90 | 90 | 70 | 70 | 
Cc1cc(C)c(C2=C(OC(=O)C3CC3)[C@H]3[C@@H](C2=O)[C@@H]2CC[C@H]3O2)c(C)c1 (racemic) [Example P5] | 90 | 90 | 100 | 100 | 100 | 100 | 80 | 100 | 100 | 60 | 100 | 90 | 
Cc1cc(C)c(C2=C(O)[C@@H]3[C@@H]4O[C@@H]([C@H](Br)[C@H]4Br)[C@@H]3C2=O)c(C)c1 [Example T46] | 30 | 70 | 10 | 20 | 30 | 0 | 60 | 80 | 0 | 0 | 0 | 0 | 
CCc1cc(C)cc(CC)c1C1=C(O)[C@@H]2[C@@H]3O[C@@H](C[C@H]3c3ccc(Cl)c(Cl)c3)[C@@H]2C1=O [Example T150] | 0 | 40 | 0 | 0 | 30 | 0 | 90 | 100 | 60 | 30 | 40 | 60 | 
CC[C@]12C=C[C@H](O1)[C@@H]1C(=O)C(c3c(C)cc(C)cc3C)=C(O)[C@@H]12 [Example T40] | 40 | 40 | 50 | 60 | 60 | 60 | 70 | 70 | 40 | 70 | 30 | 30 | 
